{
  "source": "paper PMC5911580",
  "about": "“YL143, a novel mutant selective irreversible EGFR inhibitor, overcomes EGFR^L858R, T790M‐mutant resistance in vitro and in vivo” (Cancer Medicine, 2018)",
  "key": {"BaF3": {"test_system": "BaF3", "assay": "CCK-8 assay, BaF3 cells", "assay_type": "cell-based", "details": "Mus musculus, AV±SD, read-out: anti-proliferative activity BaF3", "description": "(§1) Cells were seeded into 96‐well plates at a density of 1500~3000/well in complete medium overnight. Then, cells were treated with various concentrations (0.01~1000 nmol/L) of YL143 for additional 3 days. Viable cell numbers were determined by Cell Counting Kit 8 (CCK8, CK04, Dojindo Laboratories, Japan). Each assay consisted of three replicate wells and repeated at least three times. […] Each IC50 value was expressed as mean ± SD.\n(§2) The anti-proliferative activities of the compounds were evaluated using CCK-8 assay. The data were means from at least four independent experiments."}, "TRKA": {"molecular_target": "TRKA (Homo sapiens, UniProt P04629)", "sequence (P04629 33-796, species assumed)": "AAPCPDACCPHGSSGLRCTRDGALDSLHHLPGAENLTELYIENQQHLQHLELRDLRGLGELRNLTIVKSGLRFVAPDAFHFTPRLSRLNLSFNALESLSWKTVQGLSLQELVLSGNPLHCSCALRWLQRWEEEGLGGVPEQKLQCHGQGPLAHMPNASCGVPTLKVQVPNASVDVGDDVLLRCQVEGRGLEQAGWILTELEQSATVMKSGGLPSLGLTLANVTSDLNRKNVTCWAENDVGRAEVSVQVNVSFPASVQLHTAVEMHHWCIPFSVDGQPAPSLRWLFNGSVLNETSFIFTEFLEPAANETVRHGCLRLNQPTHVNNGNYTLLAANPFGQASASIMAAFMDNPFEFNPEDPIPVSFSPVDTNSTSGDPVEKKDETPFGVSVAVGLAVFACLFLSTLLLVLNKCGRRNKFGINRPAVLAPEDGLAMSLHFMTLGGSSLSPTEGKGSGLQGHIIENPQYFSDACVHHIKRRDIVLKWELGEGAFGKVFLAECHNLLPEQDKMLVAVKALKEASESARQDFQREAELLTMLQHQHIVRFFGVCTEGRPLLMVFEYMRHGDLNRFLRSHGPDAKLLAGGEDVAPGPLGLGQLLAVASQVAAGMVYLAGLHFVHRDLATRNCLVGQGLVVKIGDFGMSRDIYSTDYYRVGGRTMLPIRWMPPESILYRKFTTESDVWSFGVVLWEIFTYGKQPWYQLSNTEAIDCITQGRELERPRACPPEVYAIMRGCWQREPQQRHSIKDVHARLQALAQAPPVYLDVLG", "assay": "Z'-Lyte kinase panel, TRKA", "assay_type": "biochemical", "details": "1.5 hrs incubation", "description": "(§3) Kinase activity assays were performed using the FRET-based Z′-Lyte assay according to the manufacturer’s instructions. The compounds were incubated with the kinase reaction mixture for 1.5 hrs before measurement. The data are means from two independent experiments and the variations are below 20%."}, "EGFR": {"molecular_target": "T1, EGFR (Homo sapiens, UniProt P00533)", "T1 construct": "purchased Invitrogen", "assay": "Z'-Lyte kinase panel, EGFR", "assay_type": "biochemical", "details": "1.5 hrs incubation", "description": "All EGFR (WT, L858R, L858R/T790M, etc.) recombinant human protein was purchased from Invitrogen. The kinase activity assay was performed and optimized according to the instructions of Z’‐LYTE™ kinase assay kits from the manufacturer (PV4879, Life, America). In our experiments, 10 concentration gradients from 0.01 nmol/L to 1.0 μmol/L were used for all the compounds.\nas §3"}, "IR": {"molecular_target": "IR (Homo sapiens, UniProt P06213)", "assay": "FRET-based Z'-Lyte kinase assay, IR", "assay_type": "biochemical", "details": "AV ± SD; 1.5 h incubation", "description": "(§4) The kinase activity assay was performed and optimized according to the instructions of Z’‐LYTE™ kinase assay kits from the manufacturer (PV4879, Life, America). In our experiments, 10 concentration gradients from 0.01 nmol/L to 1.0 μmol/L were used for all the compounds."}, "[1]": {"test_system": "EGFR signal pathway in A431 cells", "assay": "Western blot of EGFR signaling in A431 cells", "assay_type": "cell-based", "details": "compared with H1975", "description": "Cells were treated with various concentrations of compound for designed time. Then, cells were lysed using 1 × SDS sample lysis buffer (CST recommended) with protease and phosphatase inhibitors. Cell lysates were loaded and electrophoresed onto 8–12% SDS‐PAGE gel, and then, separated proteins were transferred to a PVDF film. The film was blocked with 5% fat‐free milk in TBS solution containing 0.5% Tween‐20 for 4 h at room temperature and then incubated with corresponding primary antibody (1:1000–1:200) overnight at 4°C. After washing with TBST, HRP‐conjugated secondary antibody was incubated for 2 h. And the protein signals were visualized by ECL Western Blotting Detection Kit (Thermo Scientific, Waltham, MA) and detected with Amersham Imager 600 system (GE, America).\nThe selective EGFR ^L858R/T790M inhibition of YL143 was investigated in H1975, HCC827, A549, and A431 cancer cells harboring different statuses of EGFR by Western blotting analysis (Fig. 2A)."}, "BaF3-EGFR ^L858R": {"test_system": "BaF3-EGFR ^L858R", "assay": "CCK-8 assay, BaF3-EGFR L858R stable cells", "assay_type": "cell-based", "details": "Ba/F3 EGFR-L858R; CCK-8; AV±SD; read-out: anti-proliferative activity BaF3-EGFR L858R", "description": "as §1, §2"}, "EGFR^WT": {"molecular_target": "T2, EGFR^WT (Homo sapiens, UniProt P00533)", "T2 construct": "purchased Invitrogen", "assay": "FRET-based Z'-Lyte kinase assay, EGFR WT", "assay_type": "biochemical", "details": "AV ± SD; 1.5 h incubation", "description": "as §4"}, "A431 (EGFR^WT) cells": {"test_system": "A431 (EGFR^WT) cells", "assay": "CCK-8 cell growth assay, A431", "assay_type": "cell-based", "details": "Homo sapiens, A-431; CCK-8, 72 h; read-out: antiproliferative IC50 A431", "description": "as §1"}, "AKT2": {"molecular_target": "AKT2 (Homo sapiens, UniProt P31751)", "assay": "Z'-Lyte kinase panel, AKT2", "assay_type": "biochemical", "details": "1.5 hrs incubation", "description": "as §3"}, "[2]": {"test_system": "HCC827 (EGFR^del 19) cells", "assay": "CCK-8 cell growth assay, HCC827", "assay_type": "cell-based", "details": "Homo sapiens, HCC827; CCK-8, 72 h; AV ± SD; read-out: antiproliferative IC50 HCC827", "description": "as §1"}, "Abl": {"molecular_target": "Abl (Homo sapiens, UniProt P00519)", "assay": "Z'-Lyte kinase panel, Abl", "assay_type": "biochemical", "details": "1.5 hrs incubation", "description": "as §3"}, "FLT3": {"molecular_target": "FLT3 (Homo sapiens, UniProt P36888)", "sequence (P36888 27-993, species assumed)": "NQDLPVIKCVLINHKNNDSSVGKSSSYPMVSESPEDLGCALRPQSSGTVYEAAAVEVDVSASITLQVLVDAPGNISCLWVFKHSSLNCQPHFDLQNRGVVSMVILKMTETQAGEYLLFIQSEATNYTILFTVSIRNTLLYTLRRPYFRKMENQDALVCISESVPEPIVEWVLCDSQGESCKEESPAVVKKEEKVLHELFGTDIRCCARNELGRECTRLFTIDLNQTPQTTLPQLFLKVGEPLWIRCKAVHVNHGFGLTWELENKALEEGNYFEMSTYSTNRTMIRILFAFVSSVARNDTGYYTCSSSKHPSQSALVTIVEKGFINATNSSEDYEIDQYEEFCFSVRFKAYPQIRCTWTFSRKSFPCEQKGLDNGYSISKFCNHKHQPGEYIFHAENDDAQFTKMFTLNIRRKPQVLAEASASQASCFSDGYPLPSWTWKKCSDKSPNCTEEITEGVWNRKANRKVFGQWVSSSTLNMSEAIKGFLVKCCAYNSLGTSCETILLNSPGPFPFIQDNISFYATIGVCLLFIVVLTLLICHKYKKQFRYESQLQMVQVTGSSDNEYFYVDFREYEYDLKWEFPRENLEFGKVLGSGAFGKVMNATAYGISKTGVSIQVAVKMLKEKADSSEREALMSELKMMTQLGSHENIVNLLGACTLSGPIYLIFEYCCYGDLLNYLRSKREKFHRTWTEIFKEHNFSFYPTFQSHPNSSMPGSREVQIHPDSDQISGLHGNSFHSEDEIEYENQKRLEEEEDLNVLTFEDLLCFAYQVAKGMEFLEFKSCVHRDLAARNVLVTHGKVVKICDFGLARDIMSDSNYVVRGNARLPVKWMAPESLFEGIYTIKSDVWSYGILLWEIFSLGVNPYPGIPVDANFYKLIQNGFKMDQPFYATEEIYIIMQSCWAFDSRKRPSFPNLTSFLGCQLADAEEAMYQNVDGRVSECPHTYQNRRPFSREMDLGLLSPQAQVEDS", "assay": "Z'-Lyte kinase panel, FLT3", "assay_type": "biochemical", "details": "1.5 hrs incubation", "description": "as §3"}, "CSF1R": {"molecular_target": "CSF1R (Homo sapiens, UniProt P07333)", "sequence (P07333 20-972, species assumed)": "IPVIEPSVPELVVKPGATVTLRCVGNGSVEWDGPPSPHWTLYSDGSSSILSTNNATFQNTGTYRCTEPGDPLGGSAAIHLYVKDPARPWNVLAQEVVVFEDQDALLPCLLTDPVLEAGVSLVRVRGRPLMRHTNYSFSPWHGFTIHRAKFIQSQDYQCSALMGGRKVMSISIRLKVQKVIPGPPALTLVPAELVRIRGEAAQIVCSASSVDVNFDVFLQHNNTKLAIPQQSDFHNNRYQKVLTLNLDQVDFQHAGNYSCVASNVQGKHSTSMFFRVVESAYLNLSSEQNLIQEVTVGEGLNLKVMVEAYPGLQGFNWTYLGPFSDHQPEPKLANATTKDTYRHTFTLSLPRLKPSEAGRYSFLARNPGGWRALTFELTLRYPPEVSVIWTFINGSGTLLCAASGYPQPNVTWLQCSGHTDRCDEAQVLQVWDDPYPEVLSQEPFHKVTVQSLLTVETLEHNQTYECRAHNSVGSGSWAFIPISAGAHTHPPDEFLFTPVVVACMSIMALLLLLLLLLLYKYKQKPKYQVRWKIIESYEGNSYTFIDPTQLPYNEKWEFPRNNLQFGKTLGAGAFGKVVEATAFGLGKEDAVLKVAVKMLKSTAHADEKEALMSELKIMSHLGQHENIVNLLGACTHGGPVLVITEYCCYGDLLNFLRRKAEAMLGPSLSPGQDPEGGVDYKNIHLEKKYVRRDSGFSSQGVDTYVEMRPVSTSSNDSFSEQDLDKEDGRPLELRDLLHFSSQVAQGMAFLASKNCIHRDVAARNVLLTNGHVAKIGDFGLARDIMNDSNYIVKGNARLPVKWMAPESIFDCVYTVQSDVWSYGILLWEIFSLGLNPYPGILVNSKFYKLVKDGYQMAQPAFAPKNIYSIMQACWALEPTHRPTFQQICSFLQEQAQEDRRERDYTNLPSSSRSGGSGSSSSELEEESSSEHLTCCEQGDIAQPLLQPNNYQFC", "assay": "Z'-Lyte kinase panel, CSF1R", "assay_type": "biochemical", "details": "1.5 hrs incubation", "description": "as §3"}, "IGF1R": {"molecular_target": "IGF1R (Homo sapiens, UniProt P08069)", "assay": "FRET-based Z'-Lyte kinase assay, IGF1R", "assay_type": "biochemical", "details": "AV ± SD; 1.5 h incubation", "description": "as §4"}, "EGFR^L858R": {"molecular_target": "T3, EGFR^L858R (Homo sapiens, UniProt P00533, L858R)", "T3 construct": "purchased Invitrogen", "T3 sequence (P00533 25-1210 L858R)": "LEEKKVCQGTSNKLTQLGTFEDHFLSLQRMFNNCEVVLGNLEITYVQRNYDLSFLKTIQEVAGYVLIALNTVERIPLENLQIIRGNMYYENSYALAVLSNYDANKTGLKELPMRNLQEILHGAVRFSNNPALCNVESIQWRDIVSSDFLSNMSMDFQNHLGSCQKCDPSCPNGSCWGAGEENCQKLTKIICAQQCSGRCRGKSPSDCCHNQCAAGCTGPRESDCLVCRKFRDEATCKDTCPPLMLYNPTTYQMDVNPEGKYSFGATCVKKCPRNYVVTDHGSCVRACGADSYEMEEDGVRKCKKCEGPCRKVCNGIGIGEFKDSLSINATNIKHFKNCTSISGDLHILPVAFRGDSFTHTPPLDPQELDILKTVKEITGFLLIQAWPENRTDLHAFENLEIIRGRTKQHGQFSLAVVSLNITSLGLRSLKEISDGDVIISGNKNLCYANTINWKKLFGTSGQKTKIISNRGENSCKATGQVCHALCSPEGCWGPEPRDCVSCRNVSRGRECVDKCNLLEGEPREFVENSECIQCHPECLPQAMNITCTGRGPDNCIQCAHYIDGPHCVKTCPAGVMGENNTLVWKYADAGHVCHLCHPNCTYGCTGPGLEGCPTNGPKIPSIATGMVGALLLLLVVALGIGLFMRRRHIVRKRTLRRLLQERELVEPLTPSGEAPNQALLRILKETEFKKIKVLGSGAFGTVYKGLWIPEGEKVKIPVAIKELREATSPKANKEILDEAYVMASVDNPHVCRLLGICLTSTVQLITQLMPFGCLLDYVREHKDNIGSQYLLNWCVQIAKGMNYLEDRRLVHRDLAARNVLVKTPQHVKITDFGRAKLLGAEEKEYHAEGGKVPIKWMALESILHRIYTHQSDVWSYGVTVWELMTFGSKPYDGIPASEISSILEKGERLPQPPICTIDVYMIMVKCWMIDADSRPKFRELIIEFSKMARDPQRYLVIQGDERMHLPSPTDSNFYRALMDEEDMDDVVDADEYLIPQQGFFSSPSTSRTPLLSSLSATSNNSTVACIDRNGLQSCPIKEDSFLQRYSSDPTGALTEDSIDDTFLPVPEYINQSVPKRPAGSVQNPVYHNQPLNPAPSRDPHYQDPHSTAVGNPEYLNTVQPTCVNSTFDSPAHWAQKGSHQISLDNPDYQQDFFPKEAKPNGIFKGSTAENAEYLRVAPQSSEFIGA", "assay": "FRET-based Z'-Lyte kinase assay, EGFR L858R", "assay_type": "biochemical", "details": "AV ± SD; 1.5 h incubation", "description": "as §4"}, "EGFR^L858R/T790M": {"molecular_target": "EGFR^L858R/T790M (Homo sapiens, UniProt P00533, L858R/T790M)", "sequence (P00533 25-1210 T790M/L858R)": "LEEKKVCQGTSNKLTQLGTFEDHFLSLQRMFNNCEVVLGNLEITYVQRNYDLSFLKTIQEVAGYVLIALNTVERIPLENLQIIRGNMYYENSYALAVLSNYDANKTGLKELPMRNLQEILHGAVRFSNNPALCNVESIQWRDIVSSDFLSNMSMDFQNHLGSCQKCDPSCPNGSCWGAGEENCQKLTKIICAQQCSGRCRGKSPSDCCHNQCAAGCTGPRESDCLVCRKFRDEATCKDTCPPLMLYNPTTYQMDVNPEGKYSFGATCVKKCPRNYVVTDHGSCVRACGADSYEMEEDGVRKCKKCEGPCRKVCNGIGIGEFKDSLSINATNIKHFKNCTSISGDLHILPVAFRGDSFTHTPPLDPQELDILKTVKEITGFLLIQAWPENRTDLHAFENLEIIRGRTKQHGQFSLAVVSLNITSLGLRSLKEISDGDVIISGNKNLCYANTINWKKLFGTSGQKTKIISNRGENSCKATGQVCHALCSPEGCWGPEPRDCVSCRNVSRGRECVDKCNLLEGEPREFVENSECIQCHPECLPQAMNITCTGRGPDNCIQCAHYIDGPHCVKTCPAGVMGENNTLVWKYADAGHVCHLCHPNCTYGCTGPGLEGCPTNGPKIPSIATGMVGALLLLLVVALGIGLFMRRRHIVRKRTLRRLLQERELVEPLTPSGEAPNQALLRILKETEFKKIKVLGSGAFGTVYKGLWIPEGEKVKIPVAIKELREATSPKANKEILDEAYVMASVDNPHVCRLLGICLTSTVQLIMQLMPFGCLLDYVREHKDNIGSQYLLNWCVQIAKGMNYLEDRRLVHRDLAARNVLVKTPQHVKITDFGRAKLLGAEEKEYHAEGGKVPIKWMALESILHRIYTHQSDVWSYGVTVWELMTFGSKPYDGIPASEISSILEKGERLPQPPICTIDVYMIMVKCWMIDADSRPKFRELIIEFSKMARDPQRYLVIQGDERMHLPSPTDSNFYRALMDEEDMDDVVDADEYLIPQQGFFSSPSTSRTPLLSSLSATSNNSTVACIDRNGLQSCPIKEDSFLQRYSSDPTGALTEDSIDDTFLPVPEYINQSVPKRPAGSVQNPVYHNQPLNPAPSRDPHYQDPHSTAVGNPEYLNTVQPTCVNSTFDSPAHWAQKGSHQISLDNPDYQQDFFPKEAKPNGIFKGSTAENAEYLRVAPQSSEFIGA", "assay": "FRET-based Z'-Lyte kinase assay, EGFR L858R/T790M", "assay_type": "biochemical", "design": "purchased Invitrogen", "description": "as §4"}, "[3]": {"test_system": "H1975 (EGFR^L858R/T790M) cells", "assay": "CCK-8 cell growth assay, H1975", "assay_type": "cell-based", "details": "Homo sapiens, NCI-H1975; CCK-8, 72 h; AV ± SD; read-out: antiproliferative IC50 H1975", "description": "as §1"}, "[4]": {"assay": "Pharmacokinetic study in SD rats", "assay_type": "in vivo, rat", "description": "Sprague Dawley (SD) rats (180–220 g) were fasted overnight before drug administration. They could eat food and drink water freely during the study. Rats were grouped and treated with 25 and 5 mg/kg of YL143 in vehicle via oral gavage and i.v., respectively. Eyeground vein blood samples (0.20 mL) were collected from each animal at designed time point postdose (5, 30 min, 1, 2, 4, 8, 12, 24, 36, 48, 60, and 72 h.). Blood samples were centrifuged within 10 min at 900 g, and then, plasma was separated and stored at 4°C until analysis. Drug concentration was quantitatively detected using an API 300 mass spectrometer (Applied Biosystems, Canada) with TurboIonSpray source interface. Data acquisition and quantitation were performed using Analyst 1.4 (Applied Biosystems, Canada). All pharmacokinetic parameters were calculated by DAS 2.0 using a noncompartment model (Clinical drug research center of Shanghai University of Traditional Chinese Medicine, Shanghai, China)."}, "AKT1": {"molecular_target": "AKT1 (Homo sapiens, UniProt P31749)", "assay": "Z'-Lyte kinase panel, AKT1", "assay_type": "biochemical", "details": "1.5 hrs incubation", "description": "as §3"}, "[5]": {"details": "Sprague-Dawley, rat, plasma, iv, I.V. 5 mg/Kg"}, "[6]": {"details": "Sprague-Dawley, rat, plasma, po, P.O. 25 mg/Kg"}},
  "data": [
    {"smiles": "C=CC(=O)Nc1cc(C)cc(-n2c(=O)cc(C)c3cnc(Nc4ccc(N5CCN(C)CC5)cc4OC)nc32)c1", "note": "[YL143, N‐(3‐(2‐((2‐Methoxy‐4‐(4‐methylpiperazin‐1‐yl)phenyl)amino)‐5‐methyl‐7‐oxopyrido [2,3‐d]pyrimidin‐8(7H)‐yl)‐5‐methylphenyl)acrylamide]", "values": [
      {"measurement": "IC50", "setting": "BaF3", "value": "> 10000", "unit": "nM"},
      {"measurement": "IC50", "setting": "TRKA", "value": "> 10000", "unit": "nM"},
      {"measurement": "IC50", "setting": "EGFR", "value": 35.3, "unit": "nM"},
      {"measurement": "IC50", "setting": "IR", "value": "7.5 ± 0.1", "unit": "nM"},
      {"measurement": "effect on EGFR signal pathway", "setting": "[1]", "value": "obviously less potent"},
      {"measurement": "IC50", "setting": "BaF3-EGFR ^L858R", "value": "71 ± 41", "unit": "nM"},
      {"measurement": "IC50", "setting": "EGFR^WT", "value": "185 ± 43.4", "unit": "nM"},
      {"measurement": "IC50", "setting": "A431 (EGFR^WT) cells", "value": "> 1000", "unit": "nM"},
      {"measurement": "IC50", "setting": "AKT2", "value": "> 10000", "unit": "nM"},
      {"measurement": "IC50", "setting": "[2]", "value": "21.1 ± 9.9", "unit": "nM"},
      {"measurement": "IC50", "setting": "Abl", "value": "> 10000", "unit": "nM"},
      {"measurement": "IC50", "setting": "FLT3", "value": "> 10000", "unit": "nM"},
      {"measurement": "IC50", "setting": "CSF1R", "value": "> 10000", "unit": "nM"},
      {"measurement": "IC50", "setting": "IGF1R", "value": "> 1000", "unit": "nM"},
      {"measurement": "IC50", "setting": "EGFR^L858R", "value": "49.1 ± 4.2", "unit": "nM"},
      {"measurement": "IC50", "setting": "EGFR^L858R/T790M; AV ± SD, 1.5 h incubation", "value": "2 ± 0.3", "unit": "nM"},
      {"measurement": "potency factor over CO1686 and osimertinib on EGFR^L858R/T790M", "setting": "EGFR^L858R/T790M; parallel comparison", "value": "5–7"},
      {"measurement": "IC50", "setting": "[3]", "value": "45.2 ± 27.3", "unit": "nM"},
      {"measurement": "BA (oral bioavailability)", "setting": "[4]; P.O. 25 mg/Kg vs I.V. 5 mg/Kg", "value": 24.95, "unit": "%"},
      {"measurement": "T1/2", "setting": "[4]; P.O. 25 mg/Kg, 25 mg/kg", "value": 6.13, "unit": "h"},
      {"measurement": "half-life", "setting": "[4]; Sprague-Dawley, rat, plasma, iv, 5 mg/kg, I.V. 5 mg/Kg", "value": 1.36, "unit": "h"},
      {"measurement": "AUC(0-inf)", "setting": "[4]; [5]", "value": 1880, "unit": "ng·h/mL"},
      {"measurement": "Cmax", "setting": "[4]; [5]", "value": 3270, "unit": "ng/mL"},
      {"measurement": "Tmax", "setting": "[4]; [5]", "value": 0.08, "unit": "h"},
      {"measurement": "bioavailability", "setting": "[4]; Sprague-Dawley, rat, plasma, oral, 25 mg/kg, P.O. 25 mg/Kg vs I.V. 5 mg/Kg, read-out: BA (oral bioavailability)", "value": 25, "unit": "%"},
      {"measurement": "half-life", "setting": "[4]; Sprague-Dawley, rat, plasma, po, 25 mg/kg, P.O. 25 mg/Kg", "value": 6.1, "unit": "h"},
      {"measurement": "AUC(0-inf)", "setting": "[4]; [6]", "value": 2340, "unit": "ng·h/mL"},
      {"measurement": "Cmax", "setting": "[4]; [6]", "value": 160, "unit": "ng/mL"},
      {"measurement": "Tmax", "setting": "[4]; [6]", "value": 6.67, "unit": "h"},
      {"measurement": "Cmax", "setting": "[4]; Sprague-Dawley, rat, plasma, single oral dosing 25 mg/kg", "value": 297, "unit": "nM"},
      {"measurement": "IC50", "setting": "AKT1", "value": "> 10000", "unit": "nM"}
    ]}
  ]
}
